Experimental data: PubChem BioAssay (NCI)
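GI50 is the concentration that inhibits growth by half. TGI: total growth inhibition.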

Key:
Assay in all cases: growth of human tumour cells (NCI), 384-well format
HT29 colon = tested on: HT29 colon
NCI-H522 lung = tested on: NCI-H522 lung
NCI-H460 NSCLC = tested on: NCI-H460 NSCLC
U251 glioblastoma = tested on: U251 glioblastoma
LOX IMVI melanoma = tested on: LOX IMVI melanoma
PC-3 prostate = tested on: PC-3 prostate
MALME-3M melanoma = tested on: MALME-3M melanoma
SK-OV-3 ovarian = tested on: SK-OV-3 ovarian
SNB-75 CNS = tested on: SNB-75 CNS
HL-60(TB) leukemia = tested on: HL-60(TB) leukemia
OVCAR-4 ovarian = tested on: OVCAR-4 ovarian
RXF 393 renal = tested on: RXF 393 renal
SF-539 CNS = tested on: SF-539 CNS
KM12 colon = tested on: KM12 colon
HCC-2998 colon = tested on: HCC-2998 colon
MDA-MB-435 melanoma = tested on: MDA-MB-435 melanoma
UACC-257 melanoma = tested on: UACC-257 melanoma
HCT-116 colon = tested on: HCT-116 colon
A549 NSCLC = tested on: A549 NSCLC
IGROV1 ovarian = tested on: IGROV1 ovarian
DU-145 prostate = tested on: DU-145 prostate
NCI/ADR-RES ovarian = tested on: NCI/ADR-RES ovarian
SF-295 CNS = tested on: SF-295 CNS
HOP-92 NSCLC = tested on: HOP-92 NSCLC
SF-268 CNS = tested on: SF-268 CNS
NCI-H23 lung = tested on: NCI-H23 lung
BT-549 breast = tested on: BT-549 breast
COLO 205 colon = tested on: COLO 205 colon
MDA-MB-468 breast = tested on: MDA-MB-468 breast
OVCAR-5 ovarian = tested on: OVCAR-5 ovarian
M14 melanoma = tested on: M14 melanoma
OVCAR-3 ovarian = tested on: OVCAR-3 ovarian
NCI-H226 lung = tested on: NCI-H226 lung
ACHN renal = tested on: ACHN renal
CCRF-CEM leukemia = tested on: CCRF-CEM leukemia
OVCAR-8 ovarian = tested on: OVCAR-8 ovarian
HCT-15 colon = tested on: HCT-15 colon
786-0 renal = tested on: 786-0 renal
MOLT-4 leukemia = tested on: MOLT-4 leukemia
MDA-MB-231 breast = tested on: MDA-MB-231 breast
A498 renal = tested on: A498 renal
SN12C renal = tested on: SN12C renal
CAKI-1 renal = tested on: CAKI-1 renal
UO-31 renal = tested on: UO-31 renal
RPMI-8226 leukemia = tested on: RPMI-8226 leukemia
TK-10 renal = tested on: TK-10 renal
HOP-62 NSCLC = tested on: HOP-62 NSCLC
EKVX NSCLC = tested on: EKVX NSCLC
MCF7 breast = tested on: MCF7 breast
UACC-62 melanoma = tested on: UACC-62 melanoma
SR leukemia = tested on: SR leukemia
HS 578T breast = tested on: HS 578T breast
NCI-H322M lung = tested on: NCI-H322M lung
SNB-19 CNS = tested on: SNB-19 CNS
SW-620 colon = tested on: SW-620 colon
SK-MEL-28 melanoma = tested on: SK-MEL-28 melanoma
T-47D breast = tested on: T-47D breast
SK-MEL-5 melanoma = tested on: SK-MEL-5 melanoma

CN1CC[C@@H](NC(=O)Nc2ccc(C#N)cc2)C[C@@H]1c1nc2ccccc2[nH]1
GI50 (HT29 colon): 69.3 µM | TGI (HT29 colon): > 100 µM | GI50 (NCI-H522 lung): > 79.8 µM | TGI (NCI-H522 lung): > 100 µM | GI50 (NCI-H460 NSCLC): > 100 µM | TGI (NCI-H460 NSCLC): > 100 µM | GI50 (U251 glioblastoma): > 100 µM | TGI (U251 glioblastoma): > 100 µM | GI50 (LOX IMVI melanoma): > 100 µM | TGI (LOX IMVI melanoma): > 100 µM | GI50 (PC-3 prostate): > 100 µM | TGI (PC-3 prostate): > 100 µM | GI50 (MALME-3M melanoma): 24.4 µM | TGI (MALME-3M melanoma): > 61.4 µM | GI50 (SK-OV-3 ovarian): > 100 µM | TGI (SK-OV-3 ovarian): > 100 µM | GI50 (SNB-75 CNS): > 58.6 µM | TGI (SNB-75 CNS): > 95.9 µM | GI50 (HL-60(TB) leukemia): > 87.7 µM | TGI (HL-60(TB) leukemia): > 100 µM | GI50 (OVCAR-4 ovarian): 92.4 µM | TGI (OVCAR-4 ovarian): > 100 µM | GI50 (RXF 393 renal): > 46.8 µM | TGI (RXF 393 renal): > 86.7 µM | GI50 (SF-539 CNS): > 100 µM | TGI (SF-539 CNS): > 100 µM | GI50 (KM12 colon): > 100 µM | TGI (KM12 colon): > 100 µM | GI50 (HCC-2998 colon): 47.7 µM | TGI (HCC-2998 colon): > 100 µM | GI50 (MDA-MB-435 melanoma): > 100 µM | TGI (MDA-MB-435 melanoma): > 100 µM | GI50 (UACC-257 melanoma): > 89.3 µM | TGI (UACC-257 melanoma): > 100 µM | GI50 (HCT-116 colon): 61.2 µM | TGI (HCT-116 colon): > 100 µM | GI50 (A549 NSCLC): > 87.9 µM | TGI (A549 NSCLC): > 100 µM | GI50 (IGROV1 ovarian): 75.1 µM | TGI (IGROV1 ovarian): > 100 µM | GI50 (DU-145 prostate): 73.8 µM | TGI (DU-145 prostate): > 100 µM | GI50 (NCI/ADR-RES ovarian): > 100 µM | TGI (NCI/ADR-RES ovarian): > 100 µM | GI50 (SF-295 CNS): > 80.7 µM | TGI (SF-295 CNS): > 100 µM | GI50 (HOP-92 NSCLC): 39.5 µM | TGI (HOP-92 NSCLC): 97.4 µM | GI50 (SF-268 CNS): > 86.7 µM | TGI (SF-268 CNS): > 100 µM | GI50 (NCI-H23 lung): > 75.2 µM | TGI (NCI-H23 lung): > 100 µM | GI50 (BT-549 breast): > 49.4 µM | TGI (BT-549 breast): > 93.7 µM | GI50 (COLO 205 colon): > 85.1 µM | TGI (COLO 205 colon): > 100 µM | GI50 (MDA-MB-468 breast): 32.9 µM | TGI (MDA-MB-468 breast): > 95.9 µM | GI50 (OVCAR-5 ovarian): > 87.8 µM | TGI (OVCAR-5 ovarian): > 100 µM | GI50 (M14 melanoma): > 100 µM | TGI (M14 melanoma): > 100 µM | GI50 (OVCAR-3 ovarian): > 67.4 µM | TGI (OVCAR-3 ovarian): > 100 µM | GI50 (NCI-H226 lung): > 59.6 µM | TGI (NCI-H226 lung): > 100 µM | GI50 (ACHN renal): > 84.7 µM | TGI (ACHN renal): > 100 µM | GI50 (CCRF-CEM leukemia): 74.7 µM | TGI (CCRF-CEM leukemia): > 100 µM | GI50 (OVCAR-8 ovarian): > 100 µM | TGI (OVCAR-8 ovarian): > 100 µM | GI50 (HCT-15 colon): > 87.8 µM | TGI (HCT-15 colon): > 100 µM | GI50 (786-0 renal): 40.4 µM | TGI (786-0 renal): > 100 µM | GI50 (MOLT-4 leukemia): 18.2 µM | TGI (MOLT-4 leukemia): 36.4 µM | GI50 (MDA-MB-231 breast): 61.4 µM | TGI (MDA-MB-231 breast): > 100 µM | GI50 (A498 renal): > 85.2 µM | TGI (A498 renal): > 100 µM | GI50 (SN12C renal): > 100 µM | TGI (SN12C renal): > 100 µM | GI50 (CAKI-1 renal): > 100 µM | TGI (CAKI-1 renal): > 100 µM | GI50 (UO-31 renal): > 88.5 µM | TGI (UO-31 renal): > 100 µM | GI50 (RPMI-8226 leukemia): 54.2 µM | TGI (RPMI-8226 leukemia): > 100 µM | GI50 (TK-10 renal): > 100 µM | TGI (TK-10 renal): > 100 µM | GI50 (HOP-62 NSCLC): > 100 µM | TGI (HOP-62 NSCLC): > 100 µM | GI50 (EKVX NSCLC): > 93.7 µM | TGI (EKVX NSCLC): > 100 µM | GI50 (MCF7 breast): > 72.1 µM | TGI (MCF7 breast): > 100 µM | GI50 (UACC-62 melanoma): > 61.8 µM | TGI (UACC-62 melanoma): > 100 µM | GI50 (SR leukemia): 23.4 µM | TGI (SR leukemia): 65.2 µM | GI50 (HS 578T breast): > 60 µM | TGI (HS 578T breast): > 100 µM | GI50 (NCI-H322M lung): > 100 µM | TGI (NCI-H322M lung): > 100 µM | GI50 (SNB-19 CNS): > 100 µM | TGI (SNB-19 CNS): > 100 µM | GI50 (SW-620 colon): > 100 µM | TGI (SW-620 colon): > 100 µM | GI50 (SK-MEL-28 melanoma): > 82.8 µM | TGI (SK-MEL-28 melanoma): > 100 µM | GI50 (T-47D breast): 37.9 µM | TGI (T-47D breast): > 100 µM | GI50 (SK-MEL-5 melanoma): 18.2 µM | TGI (SK-MEL-5 melanoma): > 100 µM
